Results on 1 compound are retold here after PMC5430874 (Scientific Reports, 2017).

Holding throughout (type): cell-based
Test [1] concerns the target T1, GPR139 L87A2x64 (Homo sapiens, UniProt Q6DWJ6, L87A).
T1 construct: mGluR5 signal peptide (N); expressed in transfected cells; host or cells: HEK293
T1 sequence (Q6DWJ6 2-353 L87A limits assumed): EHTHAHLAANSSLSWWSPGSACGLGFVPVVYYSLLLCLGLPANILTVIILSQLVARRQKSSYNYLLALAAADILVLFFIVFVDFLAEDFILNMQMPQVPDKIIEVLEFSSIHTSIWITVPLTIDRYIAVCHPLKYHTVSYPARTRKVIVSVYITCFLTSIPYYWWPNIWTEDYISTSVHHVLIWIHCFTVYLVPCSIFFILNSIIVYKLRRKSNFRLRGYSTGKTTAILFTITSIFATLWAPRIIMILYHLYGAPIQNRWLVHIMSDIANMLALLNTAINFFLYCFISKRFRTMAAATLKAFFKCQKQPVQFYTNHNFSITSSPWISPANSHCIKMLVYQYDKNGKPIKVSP
Briefly: Fluo-4 Ca2+-assay, GPR139 mutant L87A. An excerpt: (§1) To study the influence of specific amino acids in the predicted binding pocket on receptor function, the desired mutations were introduced into an N-terminally c-myc-tagged wild type human GPR139 (NM_001002911.3) in the pEGFP-N1 vector (BD Biosciences)[32], [33]. As previously described, these plasmids carry the signal peptide of mGluR5 to promote cell surface expression followed by a c-myc epitope to enable detection of total and surface expression by ELISA, followed by an engineered MluI and NotI site for easy insertion of the receptor of interest. Furthermore, the start-codon in the GPR139 sequence was deleted to ensure c-myc-tagging. Mutagenesis was designed in Serial Cloner 2.6 (© Franck Perez [SerialBasics]) and carried out by GenScript (USA). All mutated residues are illustrated in Supplementary Fig. 1b. An untagged GPR139(WT) in pEGFP-N1 was also generated to ensure that the c-myc-tag had no influence on GPR139(WT) function.
(§2) All GPR139 mutants were transfected into HEK293 cells. The HEK293 cells were grown in Dulbecco’s modified Eagle’s medium (DMEM) (Gibco, 41965) supplemented with 10% dialyzed fetal bovine serum (Gibco, 26400, United States origin), 100 units/mL penicillin and 100 μg/mL streptomycin (Gibco, 15140). HEK293 cells were reverse transfected using Lipofectamine2000 (Invitrogen). […]
(§3) The Ca^2+ measurements were preformed using the Fluo-4 NW Calcium Assay Kit (Invitrogen, Molecular Probes, F36206) as previously described. […] Intracellular calcium changes were recorded as indicated on either a NOVOstar (BMG Labtech) at 37 °C with an excitation filter of 485 nm and an emission filters 520 nm or a FlexStation 3 Benchtop Multi-Mode Microplate Reader (Molecular Devices) at 37 °C with an excitation wavelength of 485 nm and emission of 525 nm.
(§4) All pharmacological data have been analyzed by using Prism 6.0 (GraphPad Software Inc., San Diego). […] Changes in potency (pEC50) and span of myc-GPR139(WT) in comparison to untagged GPR139(WT) was statistically analyzed with a paired t-test and significance was accepted at p < 0.05. […]

In test [2] the target is T2, GPR139 H264A7x31 (Homo sapiens, UniProt Q6DWJ6, H264A).
T2 construct: mGluR5 signal peptide (N); expressed in transfected cells; host or cells: HEK293
T2 sequence (Q6DWJ6 2-353 H264A limits assumed): T1 sequence (Q6DWJ6 2-353 L87A limits assumed) with A86L, H263A
Briefly: Fluo-4 Ca2+-assay, GPR139 mutant H264A.
Description: as §1, with “Mutagenesis was designed in Serial Cloner 2.6 (© Franck Perez [SerialBasics]) and carried out by GenScript (USA). All mutated residues are illustrated in Supplementary Fig. 1b. An untagged GPR139(WT) in pEGFP-N1 was also generated to ensure that the c-myc-tag had no influence on GPR139(WT) function.” left out
as §3, §4

Test [3] has as its target T3, GPR139 E108Q3x32 (Homo sapiens, UniProt Q6DWJ6, E108Q).
T3 construct: mGluR5 signal peptide (N); expressed in transfected cells; host or cells: HEK293
T3 sequence (Q6DWJ6 2-353 E108Q limits assumed): T1 sequence (Q6DWJ6 2-353 L87A limits assumed) with A86L, E107Q
As to the kind of experiment: Fluo-4 Ca2+-assay, GPR139 mutant E108Q.
Description: as §1, §2, §3, §4

Each structure is given as a SMILES string. Where a chain is given by its changes, count along the chain named.

A word on the EC50: it is the concentration needed to bring the measured effect to its halfway point. A high value points to lower potency in that assay. Usually Emax stands for the maximal effect, on the per cent scale that the assay sets. On to `COc1cc(OC)cc(C(=O)NNC(=O)Nc2cccc3ccccc23)c1` [Compound 1a], for which the values for the EC50 in test [1] (L87A mutant), in test [2] (H264A mutant) and in test [3] (E108Q mutant) were 479 nM, 251 nM and 1510 nM, respectively. Also, the change of potency result in test [1] (L87A mutant versus WT (reduced surface expression)) is on record as “equipotent”. For the same compound, the Emax in test [1] (L87A, normalized to buffer (0%) and 8 µM 1a (100%)) was found to be 75 ± 17%; in test [2] (H264A, normalized to buffer (0%) and 8 µM 1a (100%)), 148 ± 15%; in test [3] (E108Q, normalized to buffer (0%) and 8 µM 1a (100%)), 217 ± 21%. Further, the potency reduction in test [3] (E108Q mutant versus WT) turned out to be 6 fold.
